# Assay results published in US6057085A, “Color photographic recording material” (Agfa-Gevaert NV, priority 1997, dated 2000).
# Assay: log P(o/w), n-octanol/water two phase system
# Format: physicochemical
# From the text: *log P(o/w) is the decimal logarithm of the distribution coefficient
# of a substance in the noctanol/water two phase system.
row,SMILES,logP
1,CN(C)c1ccc(C=C(C#N)c2nc3cc(C(=O)O)ccc3o2)cc1 [Dye I-1],< 5
2,Cc1cc(N(CC(=O)OC(C)COC(C)COC(C)(C)C)CC(=O)OC(C)COC(C)COC(C)(C)C)ccc1C=C(C#N)c1nc2cc(C(=O)O)ccc2o1 (centres unmarked) [Dye I-6],< 5
3,CCOCCOCCN(CCOCCOCC)c1ccc(C=C(C#N)c2nc3cc(S(=O)(=O)NC(=O)CC)ccc3o2)cc1 [Dye I-10],< 5
4,CCOCCOCCN(CCOCCOCC)c1ccc(C=C(C#N)c2nc3cc(S(=O)(=O)NC(=O)CC)ccc3s2)cc1 [Dye I-22],< 5

# Further lines, results first:
row,logP,SMILES
1,< 5,CCCCOC(=O)CN(CC(=O)OCCCC)c1ccc(C=C(C#N)C(=O)c2ccc(NS(C)(=O)=O)cc2)c(C)c1 [GF-2]
2,< 5,CCCCS(=O)(=O)Nc1ccc(C2=C(C#N)C(=O)OC2=Cc2ccco2)cc1 [GF-3]
3,> 5,CCCCCCCCCCCCCCCCS(=O)(=O)Nc1ccc2nc(C(C#N)=Cc3ccc(N(CC)CC)cc3C)sc2c1 [GF-4]
4,> 5,CCCCCCCCCCCCNc1cc(C)c(C=C(C#N)c2nc3ccc(NS(C)(=O)=O)cc3o2)cc1C [GF-5]
